Assays:
hT2R3 = hT2R3 (Homo sapiens (Human), UniProt Q9NYW6); test: hT2R panel inhibition, transient HEK293 G16g44, agonist Chloroquine pH6.5 50 μM; format: cell-based; conditions: receptor activated to EC80 with the corresponding agonist; for inhibition at 25 µM: HEK293, compound at 25 μM, read-out: screening result against bitter receptor 3
Procedure, shortened: (§1)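 Here, inhibition reflects how much the test compound lowers activation of a transiently expressed human bitter receptor stimulated at EC80. Twenty-two such receptors were tested separately.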

hT2R5 = hT2R5 (Homo sapiens (Human), UniProt Q9NYW4); test: hT2R panel inhibition, transient HEK293 G16g44, agonist Picoline 10 mM; format: cell-based; conditions: HEK293, compound at 25 μM; receptor activated to EC80 with the corresponding agonist; read-out: screening result against bitter receptor 5
Chain of hT2R5 (Q9NYW4 whole entry): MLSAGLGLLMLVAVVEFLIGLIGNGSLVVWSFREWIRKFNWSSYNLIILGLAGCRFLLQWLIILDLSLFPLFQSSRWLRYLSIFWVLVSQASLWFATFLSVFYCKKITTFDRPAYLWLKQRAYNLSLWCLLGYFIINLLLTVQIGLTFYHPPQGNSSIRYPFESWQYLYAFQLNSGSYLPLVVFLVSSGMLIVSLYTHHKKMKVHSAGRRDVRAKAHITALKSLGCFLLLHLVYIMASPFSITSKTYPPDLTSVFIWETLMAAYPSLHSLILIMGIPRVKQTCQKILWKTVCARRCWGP
Procedure, shortened: as §1

hT2R8 = hT2R8 (Homo sapiens (Human), UniProt Q9NYW2); test: hT2R panel inhibition, transient HEK293 G16g44, agonist Andrographolide 0.5 mM; format: cell-based; conditions: HEK293, compound at 25 μM; receptor activated to EC80 with the corresponding agonist; read-out: screening result against bitter receptor 8
Chain of hT2R8 (Q9NYW2 whole entry): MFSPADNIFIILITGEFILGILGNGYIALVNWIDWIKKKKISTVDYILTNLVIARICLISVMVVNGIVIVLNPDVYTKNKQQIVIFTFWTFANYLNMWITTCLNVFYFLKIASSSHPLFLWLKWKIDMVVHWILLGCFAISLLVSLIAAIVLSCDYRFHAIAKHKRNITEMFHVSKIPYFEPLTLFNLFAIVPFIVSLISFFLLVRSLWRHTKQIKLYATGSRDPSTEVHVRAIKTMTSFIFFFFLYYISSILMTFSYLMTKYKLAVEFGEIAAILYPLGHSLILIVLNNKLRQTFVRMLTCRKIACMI
Experimental: Specifically, in order to evaluate the inhibitory selectivity of the Compound C compound, this compound was tested against 22 human T2Rs which were deorphaned by Senomyx. These receptors and the bitter ligands that activate these human T2Rs are reported in earlier patent applications which are incorporated by reference herein. These 22 human T2Rs are hT2R1, 3, 4, 5, 7, 8, 9, 10, 13, 14, 16, 44, 51, 54, 55, 61, 63, 64, 65, 67, 71 and 75. The amino acid and nucleic acid sequences of all of these T2Rs may be found in these earlier patent applications. These human T2Rs were each individually transiently transfected into HEK293 cells that stably express the promiscuous G protein G16g44 and functional assays were effected using these receptors as disclosed in these same patent applications. […] The ligands were used at EC80 concentration levels. The list of bitter ligands utilized and the tested ligand concentrations are contained in Table 5 of this example.

hT2R9 = hT2R9 (Homo sapiens (Human), UniProt Q9NYW1); test: hT2R panel inhibition, transient HEK293 G16g44, agonist Ofloxacin 1 mM; format: cell-based; conditions: HEK293, compound at 25 μM; receptor activated to EC80 with the corresponding agonist; read-out: screening result against bitter receptor 9
Chain of hT2R9 (Q9NYW1 whole entry): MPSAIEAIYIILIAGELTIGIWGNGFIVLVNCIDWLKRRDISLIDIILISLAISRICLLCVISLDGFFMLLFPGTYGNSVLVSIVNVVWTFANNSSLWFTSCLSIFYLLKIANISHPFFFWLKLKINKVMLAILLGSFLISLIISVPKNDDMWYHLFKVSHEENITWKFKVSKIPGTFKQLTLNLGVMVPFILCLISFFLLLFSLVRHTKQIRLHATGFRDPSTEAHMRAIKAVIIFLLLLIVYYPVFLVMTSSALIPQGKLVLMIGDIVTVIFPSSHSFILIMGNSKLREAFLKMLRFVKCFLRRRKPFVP
Procedure, shortened: as §1

hT2R44 = test: hT2R panel inhibition, transient HEK293 G16g44, agonist Denatonium 0.5 μM; format: cell-based, human; conditions: compound at 25 μM; receptor activated to EC80 with the corresponding agonist
Procedure, shortened: as §1

hT2R54 = test: hT2R panel inhibition, transient HEK293 G16g44, agonist Ranitidine 5 mM; format: cell-based, human; conditions: compound at 25 μM; receptor activated to EC80 with the corresponding agonist
Procedure, shortened: as §1

hT2R63 = test: hT2R panel inhibition, transient HEK293 G16g44, agonist Caffeine 1 mM or Andrographolide 100 μM; format: cell-based, human; conditions: compound at 25 μM; receptor activated to EC80 with the corresponding agonist
Procedure, shortened: as §1

hT2R64 = hT2R64 (Homo sapiens (Human), UniProt P59538); test: hT2R panel inhibition, transient HEK293 G16g44, agonist Aristolochic Acid 1 μM; format: cell-based; conditions: HEK293, compound at 25 μM; receptor activated to EC80 with the corresponding agonist; read-out: screening result against bitter receptor 64
Chain of hT2R64 (P59538 whole entry): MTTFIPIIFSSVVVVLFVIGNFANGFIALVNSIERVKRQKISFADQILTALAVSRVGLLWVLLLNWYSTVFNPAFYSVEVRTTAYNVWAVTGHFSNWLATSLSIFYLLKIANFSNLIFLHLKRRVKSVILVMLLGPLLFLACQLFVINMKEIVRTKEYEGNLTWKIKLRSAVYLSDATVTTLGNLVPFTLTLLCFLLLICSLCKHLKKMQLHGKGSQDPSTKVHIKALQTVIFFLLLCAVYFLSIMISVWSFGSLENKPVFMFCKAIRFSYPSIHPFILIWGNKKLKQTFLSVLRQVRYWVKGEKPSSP
Procedure, shortened: as §1

hT2R14 [1] = biological target: T1, hT2R14 (Homo sapiens (Human), UniProt Q9NYV8); test: hT2R14 antagonist high-throughput FLIPR assay, stable cell line with G16g44, agonist aristolochic acid; format: cell-based; conditions: Table C; read-out: hT2R14 IC50
T1 sequence (Q9NYV8 whole entry): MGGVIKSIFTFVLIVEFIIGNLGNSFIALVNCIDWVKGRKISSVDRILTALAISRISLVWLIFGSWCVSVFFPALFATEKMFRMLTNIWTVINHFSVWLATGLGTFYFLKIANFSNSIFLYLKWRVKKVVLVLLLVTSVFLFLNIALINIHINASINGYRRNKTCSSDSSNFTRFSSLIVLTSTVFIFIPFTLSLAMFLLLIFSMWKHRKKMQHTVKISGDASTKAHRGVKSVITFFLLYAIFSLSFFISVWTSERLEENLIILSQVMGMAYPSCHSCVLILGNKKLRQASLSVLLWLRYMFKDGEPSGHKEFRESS
Procedure, shortened: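 HEK293 cells stably expressing hT2R14 with chimeric G16g44 were stimulated with aristolochic acid (3 μM), giving 70-80% of maximal receptor activity. Test compounds were added together with the agonist, and antagonism was read as fluorescent calcium signal on FLIPR.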

hT2R10 = hT2R10 (Homo sapiens (Human), UniProt Q9NYW0); test: hT2R panel inhibition, transient HEK293 G16g44, agonist Strychnine 50 μM; format: cell-based; conditions: compound at 25 μM; receptor activated to EC80 with the corresponding agonist
Chain of hT2R10 (Q9NYW0 whole entry): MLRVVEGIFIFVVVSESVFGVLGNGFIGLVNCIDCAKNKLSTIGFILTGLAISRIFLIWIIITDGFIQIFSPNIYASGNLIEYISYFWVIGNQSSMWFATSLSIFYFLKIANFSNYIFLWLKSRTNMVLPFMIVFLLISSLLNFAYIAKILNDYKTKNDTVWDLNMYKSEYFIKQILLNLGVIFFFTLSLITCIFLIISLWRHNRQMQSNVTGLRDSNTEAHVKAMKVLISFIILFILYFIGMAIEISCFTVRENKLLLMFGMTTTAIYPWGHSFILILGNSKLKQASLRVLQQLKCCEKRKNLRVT

hT2R14 [2] = biological target: T1, hT2R14; test: hT2R panel inhibition, transient HEK293 G16g44, agonist Aristolochic Acid 2 μM; format: cell-based; conditions: HEK293, compound at 25 μM; receptor activated to EC80 with the corresponding agonist; read-out: screening result against bitter receptor 14
Procedure, shortened: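 Each hT2R was transiently transfected into HEK293 cells stably expressing G16g44 and assayed functionally for inhibition of agonist response. Agonists were applied at EC80: andrographolide at 0.5 mM for hT2R8 and aristolochic acid at 2 μM for hT2R14.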

hT2R51 = hT2R51 (Homo sapiens (Human), UniProt P59533); test: hT2R panel inhibition, transient HEK293 G16g44, agonist Prop 2.5 μM; format: cell-based; conditions: compound at 25 μM; receptor activated to EC80 with the corresponding agonist
Chain of hT2R51 (P59533 whole entry): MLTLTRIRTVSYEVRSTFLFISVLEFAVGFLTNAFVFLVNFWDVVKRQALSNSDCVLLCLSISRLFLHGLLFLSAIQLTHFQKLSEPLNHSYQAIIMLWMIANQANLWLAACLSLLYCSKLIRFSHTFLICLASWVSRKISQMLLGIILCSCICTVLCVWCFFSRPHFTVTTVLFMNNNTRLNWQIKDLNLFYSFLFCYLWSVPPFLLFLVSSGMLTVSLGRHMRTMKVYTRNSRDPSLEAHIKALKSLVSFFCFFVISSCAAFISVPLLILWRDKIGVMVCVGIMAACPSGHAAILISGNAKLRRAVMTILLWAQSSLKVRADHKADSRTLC
Procedure, shortened: as §1

hT2R55 = test: hT2R panel inhibition, transient HEK293 G16g44, agonist Cinchonine 150 μM; format: cell-based, human; conditions: compound at 25 μM; receptor activated to EC80 with the corresponding agonist
Procedure, shortened: as §1

hT2R61 = hT2R61 (Homo sapiens (Human), UniProt P59537); test: hT2R panel inhibition, transient HEK293 G16g44, agonist Aristolochic Acid 25 nM; format: cell-based; conditions: HEK293, compound at 25 μM; receptor activated to EC80 with the corresponding agonist; read-out: screening result against bitter receptor 61
Chain of hT2R61 (P59537 whole entry): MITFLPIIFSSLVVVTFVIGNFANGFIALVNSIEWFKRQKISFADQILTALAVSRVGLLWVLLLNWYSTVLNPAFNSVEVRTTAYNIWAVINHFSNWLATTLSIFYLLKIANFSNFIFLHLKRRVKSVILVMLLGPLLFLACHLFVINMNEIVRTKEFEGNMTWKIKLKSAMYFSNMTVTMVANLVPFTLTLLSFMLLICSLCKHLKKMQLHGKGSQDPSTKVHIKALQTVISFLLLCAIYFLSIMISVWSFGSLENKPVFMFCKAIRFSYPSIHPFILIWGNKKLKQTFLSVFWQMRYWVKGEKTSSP
Procedure, shortened: as §1

hT2R71 = hT2R71 (Homo sapiens (Human), UniProt P59536); test: hT2R panel inhibition, transient HEK293 G16g44, agonist Picric Acid 10 μM; format: cell-based; conditions: compound at 25 μM; receptor activated to EC80 with the corresponding agonist
Chain of hT2R71 (P59536 whole entry): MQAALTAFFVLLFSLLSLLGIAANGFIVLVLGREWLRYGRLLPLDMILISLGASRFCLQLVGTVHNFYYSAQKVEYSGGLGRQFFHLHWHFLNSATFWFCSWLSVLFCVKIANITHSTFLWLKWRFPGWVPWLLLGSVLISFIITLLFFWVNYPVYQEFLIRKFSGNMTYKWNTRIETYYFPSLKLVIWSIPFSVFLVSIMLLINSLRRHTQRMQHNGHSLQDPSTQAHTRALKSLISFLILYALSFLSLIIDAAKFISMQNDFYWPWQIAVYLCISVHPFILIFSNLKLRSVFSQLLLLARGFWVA
Procedure, shortened: as §1

hT2R75 = hT2R75 (Homo sapiens (Human), UniProt P59540); test: hT2R panel inhibition, transient HEK293 G16g44, agonist Strychnine 1 μM; format: cell-based; conditions: HEK293, read-out: screening result against bitter receptor 75, compound at 25 μM; receptor activated to EC80 with the corresponding agonist
Chain of hT2R75 (P59540 whole entry): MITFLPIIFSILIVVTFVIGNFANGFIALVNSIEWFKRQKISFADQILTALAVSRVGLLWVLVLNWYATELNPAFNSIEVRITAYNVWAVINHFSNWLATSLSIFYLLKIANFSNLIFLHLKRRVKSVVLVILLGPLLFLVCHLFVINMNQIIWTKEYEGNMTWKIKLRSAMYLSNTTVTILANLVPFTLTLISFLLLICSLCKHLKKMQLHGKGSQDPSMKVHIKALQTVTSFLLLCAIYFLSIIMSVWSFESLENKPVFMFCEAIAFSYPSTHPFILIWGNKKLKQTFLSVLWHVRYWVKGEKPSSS

Chain of hT2R3 (Q9NYW6 whole entry): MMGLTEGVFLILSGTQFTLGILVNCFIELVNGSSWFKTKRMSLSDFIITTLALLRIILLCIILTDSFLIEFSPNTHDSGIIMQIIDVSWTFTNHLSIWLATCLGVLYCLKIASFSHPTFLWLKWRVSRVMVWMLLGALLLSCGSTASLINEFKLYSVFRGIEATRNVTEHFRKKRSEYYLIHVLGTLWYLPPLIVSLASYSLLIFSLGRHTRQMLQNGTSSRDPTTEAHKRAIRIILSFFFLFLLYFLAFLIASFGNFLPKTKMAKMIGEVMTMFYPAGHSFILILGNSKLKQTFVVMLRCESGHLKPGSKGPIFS

SMILES | inhibition at 25 µM (hT2R3) [%] | inhibition at 25 µM (hT2R5) [%] | inhibition at 25 µM (hT2R8) [%] | inhibition at 25 µM (hT2R9) [%] | screening result against bitter receptor 44 (hT2R44) | screening result against bitter receptor 54 (hT2R54) | screening result against bitter receptor 63 (hT2R63) | inhibition at 25 µM (hT2R64) [%] | IC50 (hT2R14 [1]) [µM] | screening result against bitter receptor 3 (hT2R3; compound at 25 μM) | screening result against bitter receptor 10 (hT2R10) | inhibition at 25 µM (hT2R14 [2]) [%] | screening result against bitter receptor 51 (hT2R51) | screening result against bitter receptor 55 (hT2R55) | inhibition at 25 µM (hT2R61) [%] | screening result against bitter receptor 71 (hT2R71) | inhibition at 25 µM (hT2R75) [%]
COc1ccc(CN(Cc2ccccc2C)S(=O)(=O)c2ccc(C(=O)O)cc2)cc1 [Example 5-64, 4-(N-(4-methoxybenzyl)-N-(2-methylbenzyl)sulfamoyl)benzoic acid] | 20 to 40 | 20 to 40 | 20 to 40 | 20 to 40 | + (20% to 40% inhibition = +) | + (20% to 40% inhibition = +) | + (20% to 40% inhibition = +) | 20 to 40 |  |  |  |  |  |  |  |  | 
COc1ccc(CN(Cc2ccc(C)cc2)S(=O)(=O)c2ccc(C(=O)O)cc2)cc1 [Example 5-66, 4-(N-(4-methoxybenzyl)-N-(4-methylbenzyl)sulfamoyl)benzoic acid] | 20 to 40 |  | 20 to 40 | 20 to 40 | + (20% to 40% inhibition = +) |  |  |  |  |  |  |  |  |  |  |  | 
COc1ccc(CN(Cc2ccc(F)cc2)S(=O)(=O)c2ccc(C(=O)O)cc2)cc1 [Example 5-69, 4-(N-(4-fluorobenzyl)-N-(4-methoxybenzyl)sulfamoyl)benzoic acid] |  | 20 to 40 | 20 to 40 |  | + (20% to 40% inhibition = +) |  | ++++ (80% or greater inhibition = ++++) | 40 to 60 | 8.28 | + (20% to 40% inhibition = +) | + (20% to 40% inhibition = +) | > 80 | ++ (40% to 60% inhibition = ++) | +++ (60% to 80% inhibition = +++) | 60 to 80 | + (20% to 40% inhibition = +) | 20 to 40

— US9247759B2, “Identification of human T2R receptors that respond to bitter compounds that elicit the bitter taste in compositions, and the use thereof in assays to identify compounds that inhibit (block) bitter taste in compositions and use thereof” (SENOMYX, INC., priority 2007, dated 2016)
